From EP0552417B1, “Cyclic peptides and use thereof” (priority 1991, dated 1993) come the findings set out here.

Assay [1] has as its target T1, endothelin receptor A (ETA) (Sus scrofa, UniProt Q29010).
T1 construct: A membrane fraction prepared from the porcine heart; from tissue; host or cells: porcine heart membrane fraction
T1 sequence (Q29010 21-427): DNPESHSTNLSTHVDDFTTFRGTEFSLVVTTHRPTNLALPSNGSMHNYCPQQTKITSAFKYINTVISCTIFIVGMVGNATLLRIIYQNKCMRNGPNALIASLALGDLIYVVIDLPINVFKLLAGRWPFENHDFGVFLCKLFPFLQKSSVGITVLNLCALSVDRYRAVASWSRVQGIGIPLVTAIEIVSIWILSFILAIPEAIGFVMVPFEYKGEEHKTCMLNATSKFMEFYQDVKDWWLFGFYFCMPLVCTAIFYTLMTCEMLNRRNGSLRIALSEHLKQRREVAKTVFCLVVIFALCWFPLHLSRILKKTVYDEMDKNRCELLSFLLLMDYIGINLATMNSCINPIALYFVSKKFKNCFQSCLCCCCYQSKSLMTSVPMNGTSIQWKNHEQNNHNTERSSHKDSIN
The experiment in a line: Assay of affinity for receptor (1): binding activity on ETA receptor, 125I-labeled endothelin-1, porcine heart membrane fraction. To be noted: specific activity, taking the binding activity of control cyclo[-D-Glu-Ala-D-aIle-Leu-D-Trp-] on receptor A as 1.0, 25°C, 1 hour. Set-up: key: relative specific activity; reference cyclic pentapeptide ETA binding = 1.0. The essentials: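 Porcine heart membranes (0.15 mg/ml) incubated with 125I-endothelin-1 and test peptide for 1 h at 25°C, then centrifuged; pellet-bound radioactivity counted by gamma counter. Values given as specific activity relative to reference cyclo[-D-Glu-Ala-D-aIle-Leu-D-Trp-], set at 1.0.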

For another assay, the system named is ETB. Nature of the assay: ETB radio receptor assay *2, 125I-endothelin-1, guinea pig kidney crude membrane fraction. In kind it is binding, Guinea pigs. The note with it: relative activity, 37 °C, 90 minutes. The essentials: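 Radioligand binding used crude guinea pig kidney membranes (2.1 µg protein) with 740 Bq 125I-endothelin-1. Incubation was 90 min at 37 °C in 50 mM Tris-HCl pH 7.4, 0.1 mM PMSF, 1 mM EDTA, 0.2% BSA. Bound radioactivity was collected by GF/B filtration and measured by gamma counting.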

In assay [2] the target is T2, endothelin receptor B (ETB) (Bos taurus, UniProt P28088).
T2 construct: A membrane fraction prepared from the bovine brain; from tissue; host or cells: bovine brain membrane fraction
T2 sequence (P28088 27-441): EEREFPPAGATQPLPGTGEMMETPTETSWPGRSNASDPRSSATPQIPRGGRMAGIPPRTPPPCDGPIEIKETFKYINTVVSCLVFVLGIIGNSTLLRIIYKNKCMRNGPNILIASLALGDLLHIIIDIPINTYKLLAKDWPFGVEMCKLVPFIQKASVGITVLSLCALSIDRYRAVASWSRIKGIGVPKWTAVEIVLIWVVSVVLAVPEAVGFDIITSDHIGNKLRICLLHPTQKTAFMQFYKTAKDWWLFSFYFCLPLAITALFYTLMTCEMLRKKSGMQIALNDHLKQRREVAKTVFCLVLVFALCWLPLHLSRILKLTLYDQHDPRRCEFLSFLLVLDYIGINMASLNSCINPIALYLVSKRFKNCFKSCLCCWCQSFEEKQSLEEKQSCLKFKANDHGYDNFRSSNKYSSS
The experiment in a line: Assay of affinity for receptor (2): binding activity on ETB receptor *1, 125I-labeled endothelin-1, bovine brain membrane fraction. The note with it: 1 hour; for Binding Activity on ET Receptor (R. act.) ETB*1: specific activity, taking the binding activity of the compound of Example 8 on receptor B as 100, 25°C. The procedure:
Assay of Affinity for Receptor (2) ... Binding Activity on ETB Receptor *1
A membrane fraction prepared from the bovine brain was diluted to 0.15 mg/ml by using a buffer solution for assay, and 100 µl of the resulting suspension of the membrane fraction was poured into each assay tube to use for assay. To this suspension of the membrane fraction was added 2 µl of 5 nM ^125I labeled endothelin-1 solution. Further, 3 µl of a test peptide solution was added thereto, followed by incubation at a temperature of 25°C for 1 hour. Then, the resulting suspension was diluted with 900 µl of the buffer solution for assay cooled with ice, and thereafter separated into a supernatant and a precipitate by centrifugation at 12,000 X g for 10 minutes. Cell membranes and an endothelin receptor B (ETB) embedded therein were contained in the precipitate, and radioactive iodine-labeled endothelin bound to the receptor was also recovered in the precipitate. Accordingly, the amount of radioactive iodine-labeled endothelin bound to the endothelin receptor B (ETB) was determined by measuring the amount of radioactive iodine contained in the precipitate with a gamma-ray counter. The numerical value of ETB shown in Table 1 is the value of specific activity, taking the binding activity of the compound of Example 8 on the receptor B as 100.

Non-standard residues stand in square brackets, D forms with d. Residues, ends and D or L forms follow the SMILES beside them. *: point of attachment. 1Nal = N[C@@H](Cc1cccc2ccccc12)C(=O)O; Bn = c1ccc(C*)cc1

In the case of `CC(C)C[C@@H]1NC(=O)[C@@H](CC(C)C)NC(=O)[C@H](CO)NC(=O)[C@H](Cc2c[nH]c3ccccc23)NC(=O)[C@@H](CC(=O)O)NC(=O)[C@@H](Cc2c[nH]c3ccccc23)NC1=O` [Example 37, Cyclo[-D-Asp-Trp-Ser-D-Leu-Leu-D-Trp-]] (cyclo(L[dW][dD]WS[dL])), the “Binding Activity on ET Receptor (R. act.) ETA” value in assay [1] is listed as 24. Moreover, the “Binding Activity on ET Receptor (R. act.) ETB*2” value in the assay with ETB is recorded as 18. Moreover, the “Binding Activity on ET Receptor (R. act.) ETB*1” value in assay [2] is 22.

For the compound `CC(C)C[C@@H]1NC(=O)[C@@H](CC(C)C)NC(=O)[C@H](COCc2ccccc2)NC(=O)[C@H](Cc2c[nH]c3ccccc23)NC(=O)[C@@H](CC(=O)O)NC(=O)[C@@H](Cc2c[nH]c3ccccc23)NC1=O` [Example 38, Cyclo[-D-Asp-Trp-Ser(Bzl)-D-Leu-Leu-D-Trp-]] (cyclo(L[dW][dD]WS(Bn)[dL])), in assay [1], the “Binding Activity on ET Receptor (R. act.) ETA” value was determined as 13. Besides, in the assay on ETB, the “Binding Activity on ET Receptor (R. act.) ETB*2” value is on record as 170. For the same compound, the “Binding Activity on ET Receptor (R. act.) ETB*1” value in assay [2] was found to be 66.

`CC(C)C[C@@H]1NC(=O)[C@H](Cc2c[nH]c3ccccc23)NC(=O)[C@@H](CC(=O)O)NC(=O)[C@@H](Cc2c[nH]c3ccccc23)NC(=O)[C@H](CC(C)C)NC(=O)[C@@H](CC(C)C)NC1=O` [Example 35, Cyclo[-D-Asp-Trp-Leu-D-Leu-Leu-D-Trp-]] (cyclo(L[dL]L[dW][dD]W)): the “Binding Activity on ET Receptor (R. act.) ETA” value in assay [1] stood at 9.1. For the same compound, in the assay with ETB, the “Binding Activity on ET Receptor (R. act.) ETB*2” value is 24. In addition, in assay [2], the “Binding Activity on ET Receptor (R. act.) ETB*1” value came to 52.

One may read the IC50 as the concentration that gives 50% inhibition. Consider `CC(C)C[C@@H]1NC(=O)[C@@H](CC(C)C)NC(=O)[C@H](CC(=O)O)NC(=O)[C@H](Cc2c[nH]c3ccccc23)NC(=O)[C@@H](CC(=O)O)NC(=O)[C@@H](Cc2c[nH]c3ccccc23)NC1=O` [Example 8, cyclo[-D-Asp-Trp-Asp-D-Leu-Leu-D-Trp-]] (cyclo(D[dL]L[dW][dD]W)), for which the “Binding Activity on ET Receptor (R. act.) ETA” value in assay [1] turned out to be 76. Further, the “Binding Activity on ET Receptor (R. act.) ETB*2” value with ETB was 100. The compound further had an IC50 in assay [2] (25°C) of 3 µM. Also, in assay [2], the “Binding Activity on ET Receptor (R. act.) ETB*1” value is reported as 100.

In the case of `CC(C)C[C@@H]1NC(=O)[C@@H](CC(C)C)NC(=O)[C@H](CCC(=O)O)NC(=O)[C@H](Cc2c[nH]c3ccccc23)NC(=O)[C@@H](CC(=O)O)NC(=O)[C@@H](Cc2c[nH]c3ccccc23)NC1=O` [Example 34, Cyclo[-D-Asp-Trp-Glu-D-Leu-Leu-D-Trp-]] (cyclo(E[dL]L[dW][dD]W)), the “Binding Activity on ET Receptor (R. act.) ETA” value in assay [1] stood at 20. For the same compound, the “Binding Activity on ET Receptor (R. act.) ETB*2” value in the assay with ETB amounted to 44. Besides, the “Binding Activity on ET Receptor (R. act.) ETB*1” value in assay [2] came out at 77.

Take `CC(C)C[C@@H]1NC(=O)[C@@H](CC(C)C)NC(=O)[C@H](CC(=O)O)NC(=O)[C@H](Cc2cccc3ccccc23)NC(=O)[C@@H](CC(=O)O)NC(=O)[C@@H](Cc2c[nH]c3ccccc23)NC1=O` [Example 23, Cyclo[-D-Asp-Nal(1)-Asp-D-Leu-Leu-D-Trp-]] (cyclo([1Nal]D[dL]L[dW][dD])): the “Binding Activity on ET Receptor (R. act.) ETA” value in assay [1] is 8.3. Besides, the “Binding Activity on ET Receptor (R. act.) ETB*2” value in the assay with ETB came out at 7.7. The “Binding Activity on ET Receptor (R. act.) ETB*1” value in assay [2] came out at 11.

For `CC(C)C[C@@H]1NC(=O)[C@@H](CC(C)C)NC(=O)[C@@H]2CCCN2C(=O)[C@H](Cc2c[nH]c3ccccc23)NC(=O)[C@@H](CC(=O)O)NC(=O)[C@@H](Cc2c[nH]c3ccccc23)NC1=O` [Example 36, Cyclo[-D-Asp-Trp-Pro-D-Leu-Leu-D-Trp-]] (cyclo(L[dW][dD]WP[dL])), in assay [1], the “Binding Activity on ET Receptor (R. act.) ETA” value is reported as 17. Further, the “Binding Activity on ET Receptor (R. act.) ETB*2” value in the assay with ETB was 42. In assay [2], the “Binding Activity on ET Receptor (R. act.) ETB*1” value was 40.
